Test results: patent publication EP1214933A1, “METHOD FOR MODULATING THE METABOLISM OF NITROGEN OXIDES, COMPOSITIONS THEREFOR (AND VARIANTS) AND METHOD FOR ACTING ON A PATIENT'S ORGANISM NECESSITATING THE METABOLISM OF NITROGEN OXIDES TO BE CORRECTED” (Institut Molekulyarnoi Genetiki Rossiiskoi Akademii Nauk ( …, priority 1999, dated 2001)

Assays:
[1] = Efficacy of renitrosation catalysts by N1-nitrozotriptophan denitrosation kinetics; format: biochemical; details: 32°C, normalized for the buffer molarity
Protocol: The efficacy of renitrosation catalysts was determined by N^1-nitrozotriptophan (NOW) denitrosation kinetics in the composition of an acylic derivative or serum albumin at 32°C and at different pH values by absorption decrease at λ = 340 nm or by differential spectroscopy relative to denitrosation reaction in a buffer solution, in relation to nitrite/nitrate ratio or by the ratio analysis of nitrosation products. Examples 7-17 illustrate catalytic and inhibitory activity of W^0/W^0buffer compounds used in the claimed compositions (normalized for the buffer molarity).

[2] = tested on: NO oxidation in blood; assay: In vivo micellar NO oxidation catalysis: arterial pressure and plasma nitrite/nitrate; design: species or system male rats of Wistar normotensive line; details: for nitrate increased by / nitrite level increased by: plasma, following NaNO2 injection
Protocol: The experiment was performed on male rats of Wistar normotensive line weighing 180-400 grams. Polyethylene catheters were implanted to animals under Ketamine anesthesia (5mg/100g intraperitoneally) 24 hours prior to the experiment. The femoral artery was catheterized for connecting to arterial blood pressure (AP) transducer and the femoral vein was catheterized for intravenous administering medicinal preparations. AP and heart rate (HR) were measured in the abdominal aorta using a pressure transducer connected to a computer through an amplifier and a digital converter. The animals were divided into groups each consisting of a control and a test subgroups. […] Monitoring AP and HR was continued for 1.5 hours after administering the solutions. Following recording initial AP level group one (group L-NAME) was intraperitonelly administered an inhibitor of NO-synthases N^ω-nitro-L-arginine methyl ester (50 mg/kg) and in 1.5 hours when AP stabilized at a steady level NaNO2 (1 mg/kg) was administered. After a steady lowering AP the animals were administered Perftoran or KH. Group two of rats (group FC) was administered Perftoran or KH immediately after recording initial AP level. Group three (group FCTh) was first administered 200 mg/kg α-lipoic acid and in 15 minutes it was administered Perftoran (or KH). Before commencement of each experiment, after AP got stabilized at a steady level while administering L-NAME and NaNO2 and also immediately following completion of monitoring 0.2 ml blood were taken in each experiment from the arterial catheter for analysis.

[3] = reference buffer Phosphate, pH 6.3
[4] = group L-NAME, experimental animals

Compound: O=P([O-])([O-])OP(=O)([O-])OP(=O)([O-])[O-].[Mn+2].[Na+].[Na+].[Na+] [Example 9, Na3MnP3O10]
- W^0/W^0 buffer [1, 3]: 21

Compound: O=N[O-].[Na+] [NaNO2]
- lowering MAP by ([2]; group L-NAME, both subgroups, NaNO2 1 mg/kg after L-NAME): 25±4 mm Hg
- nitrate increased by ([2]; group L-NAME, controls): 76 ± 26 µM
- nitrite level increased by ([2]; group L-NAME, controls): 362 ± 73 µM
- nitrate increased by [2, 4]: 87 ± 15 µM
- nitrite level increased by [2, 4]: 344 ± 68 µM

Compound: O=P([O-])([O-])OP(=O)([O-])OP(=O)([O-])[O-].[Na+].[Na+].[Na+].[Na+].[Na+] [Example 7, Na5P3O10]
- W^0/W^0 buffer [1, 3]: 4

Compound: COC(=O)[C@@H](N)CCCNC(=N)N[N+](=O)[O-] [L-NAME, N^ω-nitro-L-arginine methyl ester]
- Plasma levels of nitrites and nitrates ([2]; group L-NAME, after NOS inhibitor administration): insignificant lowering
- mean arterial blood pressure (MAP) raised by ([2]; group L-NAME, both subgroups, following L-NAME 50 mg/kg intraperitoneally): 38±5 mm Hg

Compound: O=C(O)CCCCC1CCSS1 (stereo not drawn) [α-lipoic acid]
- MAP change ([2]; FCTh group, both subgroups, α-lipoic acid 200 mg/kg): insignificant lowering MAP

Compound: O=C1O[C@H]([C@@H](O)CO)C(O)=C1O [Example 17, Ascorbic acid]
- W^0/W^0 buffer ([1]; reference buffer Phosphate, pH 5.9): 32

Compound: NC(N)=NCCCC(N)C(=O)O [Example 13, D-Arg]
- W^0/W^0 buffer ([1]; reference buffer MOPS, pH 6): 0.56

Compound: O=P([O-])([O-])OP(=O)([O-])OP(=O)([O-])[O-].[Mg+2].[Na+].[Na+].[Na+] [Example 10, Na3MgP3O10]
- W^0/W^0 buffer [1, 3]: 11

Compound: Na2MnATP [Example 8]
- W^0/W^0 buffer [1, 3]: 0.7
